Results taken from patent US20250281617A1, “Drug Delivery System” (The University of Birmingham, priority 2019, published 2025).
Like-named read-outs stand apart in the source and are kept apart here.

Columns and labels:
[1] = Delivery of lutein across chicken egg epithelial membrane with polyamine/amine carrier
Method: The membrane was washed in deionized water.
Lutein is a naturally occurring carotenoid that reduces the progression of age-related macular degeneration and cataracts. Lutein has a characteristic absorbance which can be measured using a plate reader, and thus it was not necessary to label the lutein with FAM. The absorbance of the solution which had crossed the membrane was measured and compared to the absorbance of the stock solution.

[2] = chicken, 60 seconds
[3] = Delivery of fluorescent (FAM-tagged) peptide across chicken egg epithelial membrane with polyamine/amine carrier; conditions: fold versus control without carrier; Example 5
[4] = Delivery of fluorescence-labelled bevacizumab across chicken egg epithelial membrane with polyamine/amine carrier; conditions: for improvement in the amount of bevacizumab transported across the membrane: versus control without carrier; for improvement in the amount of bevacizumab transported across the membrane / amount of bevacizumab transported across the membrane compared to the control sample: Example 5; for amount of bevacizumab transported across the membrane compared to the control sample: fold versus control without carrier
[5] = chicken, 60 seconds; remark: listed apart in the source
[6] = Delivery of fluorescence-labelled bevacizumab into the posterior segment of ex vivo porcine eyes; assay type: in vitro ADME; conditions: various incubation times
Method: Further tests on porcine eyes was carried out with fluorescence-labelled bevacizumab. […] The same methodology as described in Example 3 was used, but with various incubation times.

[7] = versus control without carrier, Example 5

Compound | % peptide transported across membrane ([1]; chicken, 60 seconds) [%] | amount of lutein transported across the membrane (bound stated in text) ([1]; chicken, 60 seconds) [%] | % peptide transported across membrane [2] [%] | other results
NCCCNCCNCCCN [1,2-Bis(3-aminopropylamino)ethane] | 22.0 | > 20 | 14.1 | amount of peptide transported across the membrane compared with the control test [3]: twice as much peptide
NCCCN [1,3-Diaminopropane] |  |  |  | % peptide transported across membrane ([1]; Table 2, lutein with the named polyamine or amine moiety, methodology of Example 1): 0.2%; improvement in the amount of lutein transported across the membrane [1, 7]: did not significantly improve; % peptide transported across membrane ([4]; Table 3, fluorescence-labelled bevacizumab with the named polyamine or amine moiety, methodology of Example 1): 4.4%; improvement in the amount of bevacizumab transported across the membrane [4]: did not significantly improve
CNCCCN [3-(Methylamino)propylamine] | 6.5 | > 5 | 3.4 | 
NCCCNCCCN [Bis(3-aminopropyl)amine] |  |  |  | amount of peptide transported across the membrane compared with the control test [3]: five times more peptide; amount of bevacizumab transported across the membrane compared to the control sample [4]: more than twice as much
NCCCCCN [Cadaverine] |  |  |  | amount of bevacizumab transported across the membrane compared to the control sample [4]: more than twice as much
CCCCNCCCC [Dibutylamine] | 10.7 | > 5 | 4.0 | 
NCCN [Ethylenediamine] | 2.3 |  | 5.7 | improvement in the amount of lutein transported across the membrane [1, 7]: did not significantly improve; improvement in the amount of bevacizumab transported across the membrane [4]: did not significantly improve
N=C(N)N [Guanidine] | 8.0 | > 5 | 4.0 | % peptide transported across membrane [5]: 7.9%
NCCC(=O)N[C@@H](Cc1cnc[nH]1)C(=O)O [L-Carnosine] |  |  |  | % peptide transported across membrane [1]: 7.4%; amount of lutein transported across the membrane (bound stated in text) [1]: > 5%
CC(C)N(CCN)C(C)C [N,N-Diisopropylethylenediamine] | 6.7 | > 5 | 9.1 | % peptide transported across membrane [5]: 3.3%
NCCCNCCCNCCCN [N,N′-Bis(3-aminopropyl)-1,3-propanediamine] | 19.5 | > 5 | 32.4 | amount of peptide transported across the membrane compared with the control test [3]: five times more peptide
CNCCN [N-Methylethylenediamine] |  |  |  | % peptide transported across membrane [1]: 20.9%; amount of lutein transported across the membrane (bound stated in text) [1]: > 20%
NCCCCN [Putrescine] | 12.7 | > 5 | 6.9 | 
NCCCCNCCCN [Spermidine] | 25.7 | > 20 | 22.3 | amount of peptide transported across the membrane compared with the control test [3]: five times more peptide; effect of longer incubation time on amount of bevacizumab transported into the eye tissue [6]: increased with increasing incubation time
NCCCNCCCCNCCCN [Spermine] | 27.8 | > 20 | 28.1 | amount of peptide transported across the membrane compared with the control test [3]: twice as much peptide; effect of longer incubation time on amount of bevacizumab transported into the eye tissue [6]: did not result in higher delivery
NCCNCCNCCNCCN [Tetraethylenepentamine] | 11.5 | > 5 | 19.7 | % peptide transported across membrane [5]: 28.8%
CCN(CC)CC [Triethylamine] | 2.2 |  | 7.1 | improvement in the amount of lutein transported across the membrane [1]: did not significantly improve
NCCN(CCN)CCN [Tris(2-aminoethyl)amine] | 4.7 |  | 11.4 | % peptide transported across membrane [5]: 41.0%
NCCc1ccc(O)cc1 [Tyramine] | 14.1 | > 5 | 5.8 | % peptide transported across membrane [5]: 11.3%
NC(N)=O [Urea] |  |  |  | % peptide transported across membrane [1]: 1.7%
CC1=C[C@H](O)CC(C)(C)[C@H]1/C=C/C(C)=C/C=C/C(C)=C/C=C/C=C(C)/C=C/C=C(C)/C=C/C1=C(C)C[C@@H](O)CC1(C)C [lutein, Lutein, reference compound] |  |  |  | lutein crossed the membrane ([1]; chicken, 60 seconds): about 6%; lutein transported across the membrane ([1]; chicken, 60 seconds): 0.5%
